Holding throughout (assay): relative viability (nuclei count vs DMSO), 5 days (fraction); higher = more cells survive
Experiment [1] deals with NCI-H1648. The procedure, abridged:
(§1)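 Lung cancer cell lines in 1536-well plates got either a single drug or a fixed anchor-drug dose together with five library-drug doses (not always all listed) in √10 steps, by pin tool, on the day after seeding. Nuclei were counted after 5 days, and relative viability is the treated-to-vehicle ratio of nuclei counts. Values are medians of duplicate plates.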

The test system of experiment [2] is NCI-H661. A digest of the protocol: as §1
Experiment [3] deals with IA-LM. The procedure, abridged: as §1
The test system of experiment [4] is A549. The procedure, abridged:
as §1

The record followed here is the supplement of paper PMC10307832.

Take `Clc1ccc(Nc2nnc(Cc3ccncc3)c3ccccc23)cc1` [Vatalanib] + Nc1nc2[nH]cc(CCc3ccc(C(=O)N[C@@H](CCC(=O)O)C(=O)O)cc3)c2c(=O)[nH]1 [Pemetrexed] (partner 0.2 µM): the relative viability was determined as 0.67 in experiment [1] (first compound 0.04 µM); 0.674 in experiment [1] (first compound 0.1265 µM); 0.691 in experiment [1] (first compound 0.4 µM); 0.741 in experiment [1] (first compound 1.265 µM); 0.718 in experiment [1] (first compound 4 µM); 0.868 in experiment [2] (first compound 0.04 µM). For the same compound, the relative viability in experiment [2] (first compound 0.1265 µM) came out at 0.906; in experiment [2] (first compound 0.4 µM) it was 0.996; in experiment [2] (first compound 1.265 µM), 0.905; in experiment [2] (first compound 4 µM) it was 0.936.
With `COc1cc(N2CCC(C(N)=O)CC2)ccc1Nc1nc(N)c(Cl)c(Nc2ccccc2S(=O)(=O)C(C)C)n1` [HG-5-88-01] + CC(=O)c1c(C)c2cnc(Nc3ccc(N4CCNCC4)cn3)nc2n(C2CCCC2)c1=O [Palbociclib] (partner 0.5 µM), the relative viability in experiment [1] (first compound 0.04 µM) worked out at 0.291; in experiment [1] (first compound 0.1265 µM) it was 0.27; in experiment [1] (first compound 0.4 µM) it was 0.321; in experiment [1] (first compound 1.265 µM), 0.206; in experiment [1] (first compound 4 µM) it was 0.244; in experiment [2] (first compound 0.04 µM) it was 0.384. For the same compound, the relative viability in experiment [2] (first compound 0.1265 µM) was 0.417; in experiment [2] (first compound 0.4 µM), 0.416; in experiment [2] (first compound 1.265 µM) it was 0.359; in experiment [2] (first compound 4 µM), 0.426.
For the compound `Clc1ccc(Nc2nnc(Cc3ccncc3)c3ccccc23)cc1` [Vatalanib] + CC(=O)c1c(C)c2cnc(Nc3ccc(N4CCNCC4)cn3)nc2n(C2CCCC2)c1=O [Palbociclib] (partner 0.5 µM), the relative viability stood at 0.268 in experiment [1] (first compound 0.04 µM); 0.307 in experiment [1] (first compound 0.1265 µM); 0.26 in experiment [1] (first compound 0.4 µM); 0.233 in experiment [1] (first compound 1.265 µM); 0.302 in experiment [1] (first compound 4 µM); 0.411 in experiment [2] (first compound 0.04 µM). The relative viability came out at 0.387 in experiment [2] (first compound 0.1265 µM), 0.441 in experiment [2] (first compound 0.4 µM), 0.397 in experiment [2] (first compound 1.265 µM) and 0.401 in experiment [2] (first compound 4 µM).
`C[C@@H]1CN(CC(=O)Nc2ccc3c(c2)Cc2cccc(-c4cc(=O)cc(N5CCOCC5)o4)c2S3)C[C@H](C)O1` + CC(=O)c1c(C)c2cnc(Nc3ccc(N4CCNCC4)cn3)nc2n(C2CCCC2)c1=O [Palbociclib] (partner 0.5 µM): the relative viability in experiment [1] (first compound 0.04 µM) came to 0.265; in experiment [1] (first compound 0.1265 µM) it was 0.322; in experiment [1] (first compound 0.4 µM) it was 0.373; in experiment [1] (first compound 4 µM), 0.26; in experiment [2] (first compound 0.04 µM) it was 0.404; in experiment [2] (first compound 0.1265 µM), 0.442. In addition, the relative viability in experiment [2] (first compound 0.4 µM) was 0.387; in experiment [2] (first compound 4 µM), 0.383.
Regarding `Clc1ccc(Nc2nnc(Cc3ccncc3)c3ccccc23)cc1` [Vatalanib] + CC(=O)Nc1cccc(-n2c(=O)n(C3CC3)c(=O)c3c(Nc4ccc(I)cc4F)n(C)c(=O)c(C)c32)c1 [Trametinib] (partner 0.02 µM), the relative viability in experiment [1] (first compound 0.04 µM) was determined as 0.407; in experiment [1] (first compound 0.1265 µM) it was 0.463; in experiment [1] (first compound 0.4 µM), 0.577; in experiment [1] (first compound 1.265 µM), 0.467; in experiment [1] (first compound 4 µM), 0.578; in experiment [2] (first compound 0.04 µM), 0.636. Moreover, the relative viability in experiment [2] (first compound 0.1265 µM) was 0.533; in experiment [2] (first compound 0.4 µM), 0.689; in experiment [2] (first compound 1.265 µM), 0.59; in experiment [2] (first compound 4 µM), 0.574.
Regarding `C[C@@H]1CN(CC(=O)Nc2ccc3c(c2)Cc2cccc(-c4cc(=O)cc(N5CCOCC5)o4)c2S3)C[C@H](C)O1` + O=C(CCCCCCC(=O)Nc1ccccc1)NO [Vorinostat] (partner 1 µM), the relative viability worked out at 0.819 in experiment [3] (first compound 0.04 µM); 0.933 in experiment [3] (first compound 0.1265 µM); 1.09 in experiment [3] (first compound 0.4 µM); 0.897 in experiment [3] (first compound 4 µM); 0.505 in experiment [1] (first compound 0.04 µM); 0.605 in experiment [1] (first compound 0.1265 µM). The relative viability is 0.644 in experiment [1] (first compound 0.4 µM); 0.528 in experiment [1] (first compound 4 µM); 0.689 in experiment [2] (first compound 0.04 µM); 0.805 in experiment [2] (first compound 0.1265 µM); 0.756 in experiment [2] (first compound 0.4 µM); 0.773 in experiment [2] (first compound 4 µM).
As to `COc1cc(N2CCC(C(N)=O)CC2)ccc1Nc1nc(N)c(Cl)c(Nc2ccccc2S(=O)(=O)C(C)C)n1` [HG-5-88-01] + CC(=O)Nc1cccc(-n2c(=O)n(C3CC3)c(=O)c3c(Nc4ccc(I)cc4F)n(C)c(=O)c(C)c32)c1 [Trametinib] (partner 0.02 µM), the relative viability in experiment [1] (first compound 0.04 µM) was determined as 0.485; in experiment [1] (first compound 0.1265 µM), 0.459; in experiment [1] (first compound 0.4 µM) it was 0.417; in experiment [1] (first compound 1.265 µM), 0.352; in experiment [1] (first compound 4 µM) it was 0.316; in experiment [2] (first compound 0.04 µM), 0.591. The relative viability was 0.666 in experiment [2] (first compound 0.1265 µM), 0.573 in experiment [2] (first compound 0.4 µM), 0.554 in experiment [2] (first compound 1.265 µM) and 0.608 in experiment [2] (first compound 4 µM).
Take `Clc1ccc(Nc2nnc(Cc3ccncc3)c3ccccc23)cc1` [Vatalanib] + Nc1ncn([C@H]2C[C@H](O)[C@@H](CO)O2)c(=O)n1 [Decitabine] (partner 2 µM): the relative viability in experiment [4] (first compound 0.04 µM) was 0.238; in experiment [4] (first compound 0.1265 µM), 0.451; in experiment [4] (first compound 0.4 µM) it was 0.313; in experiment [4] (first compound 1.265 µM), 0.213; in experiment [4] (first compound 4 µM), 0.295; in experiment [1] (first compound 0.04 µM), 0.497. The relative viability in experiment [1] (first compound 0.1265 µM) was found to be 0.462; in experiment [1] (first compound 0.4 µM), 0.514; in experiment [1] (first compound 1.265 µM), 0.425; in experiment [1] (first compound 4 µM) it was 0.482; in experiment [2] (first compound 0.04 µM), 0.584; in experiment [2] (first compound 0.1265 µM), 0.512. Moreover, the relative viability in experiment [2] (first compound 0.4 µM) is 0.544; in experiment [2] (first compound 1.265 µM) it was 0.597; in experiment [2] (first compound 4 µM), 0.524.
`COc1cc(N2CCC(C(N)=O)CC2)ccc1Nc1nc(N)c(Cl)c(Nc2ccccc2S(=O)(=O)C(C)C)n1` [HG-5-88-01] + O=C(CCCCCCC(=O)Nc1ccccc1)NO [Vorinostat] (partner 1 µM): the relative viability amounted to 1.03 in experiment [3] (first compound 0.04 µM); 1.01 in experiment [3] (first compound 0.1265 µM); 0.776 in experiment [3] (first compound 0.4 µM); 0.825 in experiment [3] (first compound 1.265 µM); 0.899 in experiment [3] (first compound 4 µM); 0.616 in experiment [1] (first compound 0.04 µM). Besides, the relative viability in experiment [1] (first compound 0.1265 µM) is 0.307; in experiment [1] (first compound 0.4 µM), 0.626; in experiment [1] (first compound 1.265 µM), 0.308; in experiment [1] (first compound 4 µM), 0.301; in experiment [2] (first compound 0.04 µM) it was 0.793; in experiment [2] (first compound 0.1265 µM) it was 0.791. The relative viability in experiment [2] (first compound 0.4 µM) was 0.771; in experiment [2] (first compound 1.265 µM) it was 0.761; in experiment [2] (first compound 4 µM) it was 0.856.
